{"source": "patent US20260000496A1", "about": "“MATERIALS AND METHODS FOR DRUG-INDUCED GINGIVAL OVERGROWTH” (Optimed Technology, Inc., priority 2019, published 2026)", "key": {"[1]": {"system": "TLR2", "assay": "FACS of surface TLR2 on oral keratinocytes", "assay_type": "cell-based, human", "conditions": "LPS (10 μg/ml), Phe (10 μg/ml), different concentration of folic acid, 24 hours", "experimental": "Flow cytometry. NOKSI cells were seeded in 100 mm plates with a density of 1×10^6 cells per plate. Cells were treated with drugs, LPS, and folic acid alone or in combination. After NOKSI were detached using Corning Cell Lifter (Corning) and 10 mM EDTA in PBS, the cells were washed with FACS buffer (PBS containing 1% BSA [Sigma] and 2 mM EDTA). Cells were stained by immunofluorescence for CD282 (TLR2) and CD284 (TLR4). Fluorescent labeled antibodies at a dilution of 1:1000 in staining buffer with 2% FBS in PBS were added and incubated for 30 min in dark on ice. Cells were centrifuged and washed thrice in staining buffer and passed through a 70 μm cell strainer before data acquisition. Data analysis was performed using FlowJo (TreeStar, Ashland, OR, USA). All incubations were performed on ice.\nOral Keratinocytes Cells were treated with only LPS (10 μg/ml) for 24 hours. […] Cells were treated with LPS (10 μg/ml) and Phe (10 μg/ml) for 24 hours. […] Cells were treated with LPS (10 μg/ml), Phe (10 μg/ml), and FA ([…]) for 24 hours. […] FIG. 16."}, "[2]": {"system": "Myd88", "assay": "Mice study #2: Myd88 immunostaining of gingival tissue", "assay_type": "in vivo, C57BL/6 mice", "conditions": "preventive and active treatment groups consistent", "experimental": "Mice study #2: Validation study for preventive and active treatment for DIGO. […] One set of these mice were used as a control disease group (FIG. 23A) while the other group was treated with folic acid (gel and in drinking water) (FIG. 23B). In the prevention and treatment group, folic acid (10 μg/ml) (Sigma-Aldrich, St. Louis MO) was included in the drinking water from the time of suture placement until end of the study (14 days). Additionally, gel applications were repeated daily until the end of the study (14 days). The four groups in this study were: • 1. Control group (n=2): no interventions were performed • 2.\nHistopathology and Immunohistochemistry. Mice mandibles were fixed in 10% formaldehyde for overnight at 4° C. on the shaker with 45 rpm and then the solutions were replaced with 70% ethanol. The tissues were decalcified with 10% ethylenediaminetetraacetic acid (EDTA) for 1 week and were dehydrated through graded ethanol, cleared with xylene, and embedded in paraffin. 4 μm serial sections were cut in a buccal-lingual direction and stained with Hematoxylin and Eosin (HE) and observed under light microscopy for histomorphological evaluations.\nFor immunohistochemistry, unstained sections were deparaffinized in xylene for 10 minutes and then transferred to ethanol for 20 minutes. […]"}, "[3]": {"system": "Myd88", "assay": "Mice study #1: Myd88 immunohistochemistry of gingival tissue", "assay_type": "in vivo", "conditions": "BALB/c", "experimental": "Mice study #1: Pilot study to establish DIGO disease model. Sterile sutures (5-0 Silk thread, Ethicon, Johnson & Johnson, Somerville, NJ) were placed around the lower central incisors on both sides in BALB/c (Male) mice anaesthetized conditions using Ketamine (90-100 mg/kg bodyweight) and Xylazine (5-10 mg/kg body weight) using a 0.1 cc syringe with a 25-gauge needle intraperitoneally (FIG. 37). Mice were checked daily for intact suture placement and replaced when necessary. […] The controls were injected with the vehicle used to dissolve the drug, which was 10% ethanol and 10% polyethylene glycol castor oil (both Sigma-Aldrich, St. Louis MO) in distilled water. For preventive treatments, Folic acid was supplemented in the drinking water (10 μg/ml) ad libitum and methylcellulose gel with the Folic acid (100 μg/ml) microspheres was applied daily on the anterior gingiva. The three groups in this study were: • 1. Control group (n=1): no interventions were performed • 2. […] Treatments were continued for 28 days and digital images were captured over the time course.\nHistopathology and Immunohistochemistry. […]\nImmunohistochemical analysis. […] Then, we examined the histopathological images of the mice model type BALB/c and we assessed the expressions of the Myd88 in the disease group in comparison to the negative control and Folic acid treated group. […]"}, "[4]": {"system": "drug-induced gingival overgrowth (DIGO)", "assay": "Mice study #1: pilot DIGO model (suture + cyclosporine), gingival overgrowth", "assay_type": "in vivo, BALB/c mice", "from_the_text": "Animal Study. […] Therefore, we developed a novel in-vivo anterior ligature model to develop DIGO. We examined two strains of mice, BALB/c and C57BL/6 were used. Sterile ligature (5-0 Silk thread) were placed around the lower central incisors on both sides in mice for 14 days at anaesthetized conditions using ketamine and xylazine. Mice were daily checked for placement of suture. […] The vehicle used to dissolve the drug was 10% ethanol and 10% polyethyleneglycol castor oil (Sigma-Aldrich, St. Louis MO) in sterilized distilled water to a volume of 100%. All mice were scarified at day 14. Euthanasia was performed using carbon dioxide followed by cervical dislocation.\nIn the combined prevention and treatment group, both modes of folic acid treatments were provided including PO and local gel application. […]\nA 3Shape TRIOS® intraoral digital scanner was used to scan all of the dissected tissue and create a 3D STL (STereoLithography) file from each scan. […] The cropped scans were saved and imported into open source software platform 3DSlicer 4.8, where they were volumetrically analyzed using the “Volumes” module. The quantified volume values were statistically analyzed in GraphPad Prism® 7 (GraphPad Software Inc., CA, USA)."}, "[5]": {"system": "Human TNF-α promoter", "assay": "TNF-α promoter luciferase reporter assay in oral keratinocytes", "assay_type": "cell-based", "conditions": "full length promoter and deletion constructs; CSA, LPS & Folic acid each 10 μg/ml; p<0.05", "experimental": "Reporter assay. The TNF-α promoter deletion constructs, Δ−1220 (−1220 to +65) and Δ−450 (−450 to +65) were synthesized from SwitchGear Genomics (USA) for the luciferase reporter assay. The human TNF-α promoter constructs or an empty pLightSwitch promoter reporter vector as a control was transfected in to NOKSI using the FuGene reagent (SwitchGear Genomics, USA). Cells were seeded with a density of 5×10^3 per well of 96-well plate. GoClone reporter constructs and transfection reagents were mixed with optimum combination and incubated for 30 minutes. The media were changed to the seeded cells and reaction mixture were gently dripped onto the seeded cells, shaked the plate gently and incubated for next 24 hours. The LightSwitch assay reagents were added to the transfected plates and incubated for 30 minutes at room temperature. Luciferase activity were measured with a luminometer (Wallac Vector3; PerkinElmer, Boston, MA).\nOral Keratinocytes cells were transfected with Full length TNF-α promoter and […] and treated with CSA (10 μg/ml) & LPS (10 μg/ml), and CSA (10 μg/ml), LPS (10 μg/ml) & Folic acid (10 μg/ml). TNF-α luciferase reporter activity were measured. (p<0.05)."}}, "data": [{"smiles": "Nc1nc2ncc(CNc3ccc(C(=O)N[C@@H](CCC(=O)O)C(=O)O)cc3)nc2c(=O)[nH]1", "note": "[folic acid]", "values": [{"measurement": "TLR2 receptor on the cell surface", "setting": "[1]", "result": "do not alter"}, {"measurement": "epithelial Myd88 expression, disease group relative to folic acid-treated group", "setting": "[2]", "result": "significantly higher compared to both treated and control groups"}, {"measurement": "Myd88 expression in the epithelium, disease group relative to folic acid prevention group", "setting": "[3]", "result": "significantly higher compared to the prevention and control groups"}, {"measurement": "gingival overgrowth, 3D volumetric analysis", "setting": "[4]; prevention sample vs disease sample, overlaid scans", "result": "reduced gingival overgrowth"}, {"measurement": "gingival swelling and inflammation, clinical images", "setting": "[4]; prevention: folic acid p.o. (10 μg/ml drinking water) & local gel, apparent at day 8, vs disease group", "result": "less swelling and inflammation"}, {"measurement": "TNF-α luciferase reporter activity", "setting": "[5]", "result": "inhibits promoter activity of TNF-α"}]}]}
